According to US20070049593A1 (priority 2004, published 2007):
Structures can show the parent of a compound that is named as a salt.

Molecular target: T1, HCV polymerase (Hepatitis C virus genotype 1b, UniProt P26663)
T1 construct: a region encoding NS5B (J Virol 1991 March, 65(3), 1105-13, 544 amino acids after deletion of 47 amino acids on the C-terminal); 6xHis (C); made in house; host or cells: Escherichia coli
Assay: biochemical
Parameters: species or system HCV BK strain
How it was run: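 His-tagged NS5B (BK strain, 47-aa C-terminal deletion, E. coli-expressed) at 0.5 μg/ml copied 5 μg/ml run-off RNA bearing the HCV 3′ UTR with 2 μM UTP plus [3H]UTP, 50 μM ATP/GTP, in pH 7.5 Tris with 5 mM MgCl2, 25 °C, 90 min. TCA-precipitated RNA was counted and IC50 calculated.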

T1 sequence (P26663 2420-2963): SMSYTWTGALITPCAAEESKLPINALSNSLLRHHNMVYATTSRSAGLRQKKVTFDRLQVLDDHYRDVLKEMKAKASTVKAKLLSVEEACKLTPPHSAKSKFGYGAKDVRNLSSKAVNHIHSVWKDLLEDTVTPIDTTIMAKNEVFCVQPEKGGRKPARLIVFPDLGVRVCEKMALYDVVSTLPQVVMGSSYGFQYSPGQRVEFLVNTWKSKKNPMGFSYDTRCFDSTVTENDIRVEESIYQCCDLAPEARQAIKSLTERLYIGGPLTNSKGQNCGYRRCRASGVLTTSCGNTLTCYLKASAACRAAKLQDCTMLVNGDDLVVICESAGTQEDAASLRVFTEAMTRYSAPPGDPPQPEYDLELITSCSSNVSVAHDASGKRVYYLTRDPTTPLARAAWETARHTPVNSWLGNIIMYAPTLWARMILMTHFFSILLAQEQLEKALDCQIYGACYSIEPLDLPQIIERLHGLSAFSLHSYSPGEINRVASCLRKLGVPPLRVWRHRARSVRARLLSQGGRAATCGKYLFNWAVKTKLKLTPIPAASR

`COc1ccc2c(c1)OCCn1c-2c(C2CCCCC2)c2ccc(C(=O)N[C@@H](Cc3ccc(O)cc3)c3nnnn3C)cc21` [Example 2-454, N—[(S)-2-(4-hydroxyphenyl)-1-(1-methyl-1H-tetrazol-5-yl)ethyl]-12-cyclohexyl-3-methoxy-6,7-dihydro-5-oxa-7a-azadibenzo[a,e]azulene-9-carboxamide] and `COc1ccc2c(c1)OCCn1c-2c(C2CCCCC2)c2ccc(C(=O)NC3(c4nc5cc(OCC(=O)O)ccc5[nH]4)CCC3)cc21` [Example 2-455, (2-{1-[(12-cyclohexyl-3-methoxy-6,7-dihydro-5-oxa-7a-azadibenzo[a,e]azulene-9-carbonyl)amino]cyclobutyl}-1H-benzimidazol-5-yloxy)acetic acid] cannot be ordered by IC50: less than 100 nM for the first, less than 100 nM for the second.

`CCN1CCN(CCOc2cccc3c2OCCn2c-3c(C3CCCCC3)c3ccc(C(=O)O)cc32)CC1` [Example 2-456, 12-cyclohexyl-4-[2-(4-ethylpiperazin-1-yl)ethoxy]-6,7-dihydro-5-oxa-7a-azadibenzo[a,e]azulene-9-carboxylic acid dihydrochloride] and `O=C(O)c1ccc2c(C3CCCCC3)c3n(c2c1)CCOc1c(OCCN2CCOCC2)cccc1-3` [Example 2-462, 12-cyclohexyl-4-[2-(morpholin-4-yl)ethoxy]-6,7-dihydro-5-oxa-7a-azadibenzo[a,e]azulene-9-carboxylic acid monohydrochloride] cannot be ordered by IC50: less than 100 nM for the first, less than 100 nM for the second.

`CC(C)(C)OC(=O)N1CCC(CCOc2cccc3c2OCCn2c-3c(C3CCCCC3)c3ccc(C(=O)O)cc32)CC1` [Example 2-457, 4-[2-(1-tert-butoxycarbonylpiperidin-4-yl)ethoxy]-12-cyclohexyl-6,7-dihydro-5-oxa-7a-azadibenzo[a,e]azulene-9-carboxylic acid] and `CC(C)(C)OC(=O)N1CCC(OCCOc2cccc3c2OCCn2c-3c(C3CCCCC3)c3ccc(C(=O)O)cc32)CC1` [Example 2-465, 4-[2-(1-tert-butoxycarbonylpiperidin-4-yloxy)ethoxy]-12-cyclohexyl-6,7-dihydro-5-oxa-7a-azadibenzo[a,e]azulene-9-carboxylic acid] cannot be ordered by IC50: less than 100 nM for the first, less than 100 nM for the second.

`O=C(O)c1ccc2c(C3CCCCC3)c3n(c2c1)CCOc1c(OCCC2CCNCC2)cccc1-3` [Example 2-458, 12-cyclohexyl-4-[2-(piperidin-4-yl)ethoxy]-6,7-dihydro-5-oxa-7a-azadibenzo[a,e]azulene-9-carboxylic acid monohydrochloride] and `O=C(O)c1ccc2c(C3CCCCC3)c3n(c2c1)CCOc1c(OCCOC2CCNCC2)cccc1-3` [Example 2-466, 12-cyclohexyl-4-[2-(piperidin-4-yloxy)ethoxy]-6,7-dihydro-5-oxa-7a-azadibenzo[a,e]azulene-9-carboxylic acid monohydrochloride] cannot be ordered by IC50: less than 100 nM for the first, less than 100 nM for the second.

`CN1CCC(CCOc2cccc3c2OCCn2c-3c(C3CCCCC3)c3ccc(C(=O)O)cc32)CC1` [Example 2-459, 12-cyclohexyl-4-[2-(1-methylpiperidin-4-yl)ethoxy]-6,7-dihydro-5-oxa-7a-azadibenzo[a,e]azulene-9-carboxylic acid monohydrochloride] and `CN1CCC(OCCOc2cccc3c2OCCn2c-3c(C3CCCCC3)c3ccc(C(=O)O)cc32)CC1` [Example 2-467, 12-cyclohexyl-4-[2-(1-methylpiperidin-4-yloxy)ethoxy]-6,7-dihydro-5-oxa-7a-azadibenzo[a,e]azulene-9-carboxylic acid monohydrochloride] cannot be ordered by IC50: less than 100 nM for the first, less than 100 nM for the second.

`O=C(O)c1ccc2c(C3CCCCC3)c3n(c2c1)CCOc1c(OCCCN2CCCCC2)cccc1-3` [Example 2-460, 12-cyclohexyl-4-[3-(piperidin-1-yl)propoxy]-6,7-dihydro-5-oxa-7a-azadibenzo[a,e]azulene-9-carboxylic acid monohydrochloride] and `O=C(O)c1ccc2c(C3CCCCC3)c3n(c2c1)CCOc1c(CCN2CCCCC2)cccc1-3` [Example 2-464, 12-cyclohexyl-4-[2-(piperidin-1-yl)ethyl]-6,7-dihydro-5-oxa-7a-azadibenzo[a,e]azulene-9-carboxylic acid monohydrochloride] cannot be ordered by IC50: less than 100 nM for the first, less than 100 nM for the second.

`CN(C)CCOc1cccc2c1OCCn1c-2c(C2CCCCC2)c2ccc(C(=O)O)cc21` [Example 2-463, 12-cyclohexyl-4-(2-dimethylaminoethoxy)-6,7-dihydro-5-oxa-7a-azadibenzo[a,e]azulene-9-carboxylic acid monohydrochloride] and `COc1cccc2c1OCCn1c-2c(C2CCCCC2)c2ccc(C(=O)O)cc21` [Example 2-475, 12-cyclohexyl-4-methoxy-6,7-dihydro-5-oxa-7a-azadibenzo[a,e]azulene-9-carboxylic acid] cannot be ordered by IC50: less than 100 nM for the first, less than 100 nM for the second.

`O=C(O)c1ccc2c(C3CCCCC3)c3n(c2c1)CCOc1c(OCCC2CCN(C4CCCC4)CC2)cccc1-3` [Example 2-468, 12-cyclohexyl-4-[2-(1-cyclopentylpiperidin-4-yl)ethoxy]-6,7-dihydro-5-oxa-7a-azadibenzo[a,e]azulene-9-carboxylic acid monohydrochloride] and `CN1CCC(N(C)CCOc2cccc3c2OCCn2c-3c(C3CCCCC3)c3ccc(C(=O)O)cc32)CC1` [Example 2-472, 12-cyclohexyl-4-{2-[N-methyl-N-(1-methylpiperidin-4-yl)amino]ethoxy}-6,7-dihydro-5-oxa-7a-azadibenzo[a,e]azulene-9-carboxylic acid trihydrochloride] cannot be ordered by IC50: less than 100 nM for the first, less than 100 nM for the second.

`CN1CCCC(Oc2cccc3c2OCCn2c-3c(C3CCCCC3)c3ccc(C(=O)O)cc32)C1` (stereo not drawn) [Example 2-469, 12-cyclohexyl-4-(1-methylpiperidin-3-yloxy)-6,7-dihydro-5-oxa-7a-azadibenzo[a,e]azulene-9-carboxylic acid monohydrochloride] and `COCCN1CCCC(Oc2cccc3c2OCCn2c-3c(C3CCCCC3)c3ccc(C(=O)O)cc32)C1` (stereo not drawn) [Example 2-470, 12-cyclohexyl-4-[1-(2-methoxyethyl)piperidin-3-yloxy]-6,7-dihydro-5-oxa-7a-azadibenzo[a,e]azulene-9-carboxylic acid monohydrochloride] cannot be ordered by IC50: less than 100 nM for the first, less than 100 nM for the second.

`O=C(O)c1ccc2c(C3CCCCC3)c3n(c2c1)CCOc1c(OCc2cc(N4CCCC4=O)ccc2N2CCOCC2)cccc1-3` [Example 2-471, 12-cyclohexyl-4-[2-(morpholin-4-yl)-5-(2-oxopyrrolidin-1-yl)benzyloxy]-6,7-dihydro-5-oxa-7a-azadibenzo[a,e]azulene-9-carboxylic acid monohydrochloride] and `O=C(O)c1ccc2c(C3CCCCC3)c3n(c2c1)CCOc1c(NCCN2CCCCC2)cccc1-3` [Example 2-478, 12-cyclohexyl-4-[2-(piperidin-1-yl)ethylamino]-6,7-dihydro-5-oxa-7a-azadibenzo[a,e]azulene-9-carboxylic acid dihydrochloride] cannot be ordered by IC50: less than 100 nM for the first, less than 100 nM for the second.

First: COC(=O)c1ccc2c(C3CCCCC3)c3n(c2c1)CCOc1c(OCC(=O)O)cccc1-3 [Example 2-473, methyl 4-carboxymethoxy-12-cyclohexyl-6,7-dihydro-5-oxa-7a-azadibenzo[a,e]azulene-9-carboxylate]
Second: Nc1cccc2c1OCCn1c-2c(C2CCCCC2)c2ccc(C(=O)O)cc21 [Example 2-476, 4-amino-12-cyclohexyl-6,7-dihydro-5-oxa-7a-azadibenzo[a,e]azulene-9-carboxylic acid]
The IC50 of the first is higher: 100 to 1000 nM for the first, less than 100 nM for the second.

`CN(CCN1CCCCC1)c1cccc2c1OCCn1c-2c(C2CCCCC2)c2ccc(C(=O)O)cc21` [Example 2-474, 12-cyclohexyl-4-(N-methyl-N-[2-(piperidin-1-yl)ethyl]amino}-6,7-dihydro-5-oxa-7a-azadibenzo[a,e]azulene-9-carboxylic acid dihydrochloride] and `CCN(CCN1CCCCC1)c1cccc2c1OCCn1c-2c(C2CCCCC2)c2ccc(C(=O)O)cc21` [Example 2-480, 12-cyclohexyl-4-{N-ethyl-N-[2-(piperidin-1-yl)ethyl]amino}-6,7-dihydro-5-oxa-7a-azadibenzo[a,e]azulene-9-carboxylic acid dihydrochloride] cannot be ordered by IC50: less than 100 nM for the first, less than 100 nM for the second.

`O=C(O)c1ccc2c(C3CCCCC3)c3n(c2c1)CCOc1c-3cccc1[N+](=O)[O-]` [Example 2-477, 12-cyclohexyl-4-nitro-6,7-dihydro-5-oxa-7a-azadibenzo[a,e]azulene-9-carboxylic acid] and `CN(C)c1cccc2c1OCCn1c-2c(C2CCCCC2)c2ccc(C(=O)O)cc21` [Example 2-483, 12-cyclohexyl-4-dimethylamino-6,7-dihydro-5-oxa-7a-azadibenzo[a,e]azulene-9-carboxylic acid] cannot be ordered by IC50: less than 100 nM for the first, less than 100 nM for the second.

`Cc1ccc2c(c1)OCCn1c-2c(C2CCCCC2)c2ccc(C(=O)O)cc21` [Example 2-479, 12-cyclohexyl-3-methyl-6,7-dihydro-5-oxa-7a-azadibenzo[a,e]azulene-9-carboxylic acid] and `O=C(O)c1ccc2c(C3CCCCC3)c3n(c2c1)CCOc1cccc(F)c1-3` [Example 2-484, 12-cyclohexyl-1-fluoro-6,7-dihydro-5-oxa-7a-azadibenzo[a,e]azulene-9-carboxylic acid] cannot be ordered by IC50: less than 100 nM for the first, less than 100 nM for the second.

`CCCN(CCN1CCCCC1)c1cccc2c1OCCn1c-2c(C2CCCCC2)c2ccc(C(=O)O)cc21` [Example 2-481, 12-cyclohexyl-4-{N-[2-(piperidin-1-yl)ethyl]-N-propylamino}-6,7-dihydro-5-oxa-7a-azadibenzo[a,e]azulene-9-carboxylic acid dihydrochloride] and `COCCN(CCN1CCCCC1)c1cccc2c1OCCn1c-2c(C2CCCCC2)c2ccc(C(=O)O)cc21` [Example 2-482, 12-cyclohexyl-4-{N-(2-methoxyethyl)-N-[2-(piperidin-1-yl)ethyl]amino}-6,7-dihydro-5-oxa-7a-azadibenzo[a,e]azulene-9-carboxylic acid dihydrochloride] cannot be ordered by IC50: less than 100 nM for the first, less than 100 nM for the second.
